Laboratory results taken from ChEMBL document CHEMBL1201862, “PubChem BioAssay data set” (2004).
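Assay format: 96-well plates, 48-hour exposure. GI50: concentration for 50% inhibition of growth.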 Activity calls are given as the source filed them. Cut-off read from the data, not from the text of the source: active = GI50 up to about 1.1 µM and inactive = higher.

What was measured:
Assay in all cases: DTP human tumour cell line panel, 48 h
NCI-H226 = tested on: NCI-H226
HT-29 = tested on: HT-29
SK-MEL-28 = tested on: SK-MEL-28
OVCAR-4 = tested on: OVCAR-4
SK-OV-3 = tested on: SK-OV-3
OVCAR-8 = tested on: OVCAR-8
UO-31 = tested on: UO-31
SF-268 = tested on: SF-268
HCT-15 = tested on: HCT-15
786-0 = tested on: 786-0
U-251 = tested on: U-251
SW-620 = tested on: SW-620
CAKI-1 = tested on: CAKI-1
HOP-92 = tested on: HOP-92
COLO 205 = tested on: COLO 205
SF-539 = tested on: SF-539
LOX IMVI = tested on: LOX IMVI

`COc1ccc(OC)c(NC(=O)C(=O)C(C(C)=O)c2nc3ccc(Cl)cc3nc2O)c1` (centres undefined) was tested, and the GI50 (NCI-H226) was > 50 µM (inactive), the GI50 (HT-29) was > 50 µM (inactive) and the GI50 (SK-MEL-28) was > 50 µM (inactive). For the same molecule, the GI50 (OVCAR-4) was > 50 µM (inactive), the GI50 (SK-OV-3) was > 50 µM (inactive) and the GI50 (OVCAR-8) was > 50 µM (inactive). For the same molecule, the GI50 (UO-31) was > 50 µM (inactive), the GI50 (SF-268) was > 50 µM (inactive) and the GI50 (HCT-15) was greater than 50 µM. For the same molecule, the GI50 (786-0) was > 50 µM (inactive), the GI50 (U-251) was > 50 µM (inactive) and the GI50 (SW-620) was > 50 µM (inactive). The GI50 (CAKI-1) was > 50 µM (inactive), the GI50 (HOP-92) was > 50 µM (inactive) and the GI50 (COLO 205) was > 50 µM (inactive). For the same molecule, the GI50 (SF-539) was > 50 µM (inactive) and the GI50 (LOX IMVI) was > 50 µM (inactive).

For `[N-]=[N+]=Nc1nnc(CCCCc2nnc(N=[N+]=[N-])o2)o1`, the GI50 (NCI-H226) was > 100 µM (inactive), the GI50 (HT-29) was > 100 µM (inactive) and the GI50 (SK-MEL-28) was > 100 µM (inactive). For the same molecule, the GI50 (OVCAR-4) was > 100 µM (inactive), the GI50 (SK-OV-3) was > 100 µM (inactive) and the GI50 (OVCAR-8) was > 100 µM (inactive). The GI50 (UO-31) was > 100 µM (inactive), the GI50 (SF-268) was > 100 µM (inactive) and the GI50 (HCT-15) was greater than 100 µM. For the same molecule, the GI50 (786-0) was > 100 µM (inactive), the GI50 (U-251) was > 100 µM (inactive) and the GI50 (SW-620) was > 100 µM (inactive). The GI50 (HOP-92) was > 100 µM (inactive), the GI50 (COLO 205) was > 100 µM (inactive) and the GI50 (SF-539) was > 100 µM (inactive). For the same molecule, the GI50 (LOX IMVI) was > 100 µM (inactive).

For `CN/N=C(\C(=O)Nc1ccc(C(F)(F)F)cc1[N+](=O)[O-])C(c1cnc2ccc([N+](=O)[O-])cc2n1)[N+](=O)[O-]` (centres undefined), the GI50 (NCI-H226) was 17.9 µM (inactive), the GI50 (HT-29) was 67.1 µM (inactive) and the GI50 (SK-MEL-28) was > 100 µM (inactive). For the same molecule, the GI50 (OVCAR-4) was > 10 µM (inactive), the GI50 (SK-OV-3) was > 100 µM (inactive) and the GI50 (OVCAR-8) was 59 µM (inactive). The GI50 (UO-31) was 16 µM (inactive), the GI50 (SF-268) was 73.3 µM (inactive) and the GI50 (HCT-15) was 37.1 µM. The GI50 (786-0) was 32.4 µM (inactive), the GI50 (U-251) was 78.5 µM (inactive) and the GI50 (SW-620) was 46 µM (inactive). For the same molecule, the GI50 (CAKI-1) was 14.3 µM (inactive), the GI50 (HOP-92) was 64.1 µM (inactive) and the GI50 (COLO 205) was 28.6 µM (inactive). For the same molecule, the GI50 (SF-539) was 25.6 µM (inactive) and the GI50 (LOX IMVI) was 12.1 µM (inactive).

With `Cc1ccc(SC(C)/C=C/NNC2=NN=C(c3ccccc3)C(c3ccccc3)N2)cc1` (centres undefined) the GI50 (NCI-H226) was 29 µM (inactive), the GI50 (HT-29) was 13.3 µM (inactive) and the GI50 (SK-MEL-28) was 76.4 µM (inactive). For the same molecule, the GI50 (OVCAR-4) was 29.1 µM (inactive), the GI50 (SK-OV-3) was 32.2 µM (inactive) and the GI50 (OVCAR-8) was 31.7 µM (inactive). For the same molecule, the GI50 (UO-31) was 12.4 µM (inactive), the GI50 (SF-268) was 28 µM (inactive) and the GI50 (HCT-15) was 26.9 µM. For the same molecule, the GI50 (786-0) was 39.6 µM (inactive), the GI50 (SW-620) was 46.5 µM (inactive) and the GI50 (CAKI-1) was 13.5 µM (inactive). For the same molecule, the GI50 (HOP-92) was 20 µM (inactive), the GI50 (COLO 205) was 36.1 µM (inactive) and the GI50 (SF-539) was 34.2 µM (inactive). For the same molecule, the GI50 (LOX IMVI) was 25.7 µM (inactive).

In the case of `COC(=O)/C(=N/NC(C)(C)C)C(C(=O)C=C(C)C)C(=O)C(=O)Nc1ccc(Cl)cc1C` (centres undefined), the GI50 (NCI-H226) is reported as 99.3 µM (inactive), the GI50 (HT-29) is reported as > 100 µM (inactive) and the GI50 (SK-MEL-28) is reported as > 100 µM (inactive). The GI50 (OVCAR-4) was > 100 µM (inactive), the GI50 (SK-OV-3) was > 100 µM (inactive) and the GI50 (OVCAR-8) was > 100 µM (inactive). The GI50 (UO-31) was > 100 µM (inactive), the GI50 (SF-268) was > 100 µM (inactive) and the GI50 (HCT-15) was greater than 100 µM. The GI50 (786-0) was > 100 µM (inactive), the GI50 (U-251) was > 100 µM (inactive) and the GI50 (SW-620) was > 100 µM (inactive). The GI50 (CAKI-1) was > 100 µM (inactive), the GI50 (COLO 205) was > 100 µM (inactive) and the GI50 (SF-539) was > 100 µM (inactive).

With `O=C1NC(c2ccc(O)cc2)C2CCC1C2` (centres undefined) the GI50 (NCI-H226) was > 100 µM (inactive), the GI50 (HT-29) was > 100 µM (inactive) and the GI50 (SK-MEL-28) was > 100 µM (inactive). For the same molecule, the GI50 (OVCAR-4) was > 100 µM (inactive), the GI50 (SK-OV-3) was > 100 µM (inactive) and the GI50 (OVCAR-8) was > 100 µM (inactive). For the same molecule, the GI50 (UO-31) was > 100 µM (inactive), the GI50 (SF-268) was > 100 µM (inactive) and the GI50 (786-0) was > 100 µM (inactive). The GI50 (U-251) was > 100 µM (inactive), the GI50 (SW-620) was > 100 µM (inactive) and the GI50 (CAKI-1) was > 100 µM (inactive). The GI50 (HOP-92) was > 100 µM (inactive) and the GI50 (COLO 205) was > 100 µM (inactive).

`COC(=O)c1cc(C(=O)OC)c(CC(=O)C(=O)NC2C3CC4CC(C3)CC2C4)nc1CC(=O)C(=O)NC1C2CC3CC(C2)CC1C3` (centres undefined) was tested, and the GI50 (NCI-H226) was > 100 µM (inactive), the GI50 (HT-29) was > 100 µM (inactive) and the GI50 (SK-MEL-28) was > 100 µM (inactive). The GI50 (OVCAR-4) was > 100 µM (inactive), the GI50 (SK-OV-3) was > 100 µM (inactive) and the GI50 (OVCAR-8) was > 100 µM (inactive). The GI50 (UO-31) was > 100 µM (inactive), the GI50 (SF-268) was > 100 µM (inactive) and the GI50 (HCT-15) was greater than 100 µM. For the same molecule, the GI50 (786-0) was > 100 µM (inactive), the GI50 (U-251) was > 100 µM (inactive) and the GI50 (SW-620) was > 100 µM (inactive). For the same molecule, the GI50 (CAKI-1) was > 100 µM (inactive), the GI50 (HOP-92) was 74.6 µM (inactive) and the GI50 (COLO 205) was > 100 µM (inactive). For the same molecule, the GI50 (SF-539) was > 100 µM (inactive) and the GI50 (LOX IMVI) was > 100 µM (inactive).

For `COC1(OC)CC2CCCCC2=C(C)N1S(=O)(=O)c1ccccc1` (centres undefined), the GI50 (NCI-H226) was > 100 µM (inactive), the GI50 (HT-29) was > 100 µM (inactive) and the GI50 (SK-MEL-28) was > 100 µM (inactive). For the same molecule, the GI50 (OVCAR-4) was > 100 µM (inactive), the GI50 (SK-OV-3) was > 100 µM (inactive) and the GI50 (OVCAR-8) was > 100 µM (inactive). The GI50 (UO-31) was > 100 µM (inactive), the GI50 (SF-268) was > 100 µM (inactive) and the GI50 (HCT-15) was greater than 100 µM. For the same molecule, the GI50 (786-0) was > 100 µM (inactive), the GI50 (U-251) was > 100 µM (inactive) and the GI50 (SW-620) was > 100 µM (inactive). The GI50 (CAKI-1) was > 100 µM (inactive), the GI50 (HOP-92) was > 100 µM (inactive) and the GI50 (COLO 205) was > 100 µM (inactive). For the same molecule, the GI50 (SF-539) was > 100 µM (inactive) and the GI50 (LOX IMVI) was > 100 µM (inactive).
